Experimental data: patent publication US20240199555A1, “APPLICATIONS OF BIASED LIGANDS OF THE SEROTONIN 5-HT7 RECEPTOR FOR THE TREATMENT OF PAIN, MULTIPLE SCLEROSIS AND THE CONTROL OF THERMOREGULATION” (Centre National de la Recherche Scientifique, priority 2021, published 2024)

Columns and labels:
h5-HT7R = h5-HT7R (Homo sapiens (Human), UniProt P34969); experiment: ERK1/2 and c-SRC phosphorylation by western blot in HEK-293 cells stably expressing h5-HT7R; assay type: cell-based; settings: 10 μM of ligand or increasing concentrations, western blot
h5-HT7R, sequence (P34969 1-432): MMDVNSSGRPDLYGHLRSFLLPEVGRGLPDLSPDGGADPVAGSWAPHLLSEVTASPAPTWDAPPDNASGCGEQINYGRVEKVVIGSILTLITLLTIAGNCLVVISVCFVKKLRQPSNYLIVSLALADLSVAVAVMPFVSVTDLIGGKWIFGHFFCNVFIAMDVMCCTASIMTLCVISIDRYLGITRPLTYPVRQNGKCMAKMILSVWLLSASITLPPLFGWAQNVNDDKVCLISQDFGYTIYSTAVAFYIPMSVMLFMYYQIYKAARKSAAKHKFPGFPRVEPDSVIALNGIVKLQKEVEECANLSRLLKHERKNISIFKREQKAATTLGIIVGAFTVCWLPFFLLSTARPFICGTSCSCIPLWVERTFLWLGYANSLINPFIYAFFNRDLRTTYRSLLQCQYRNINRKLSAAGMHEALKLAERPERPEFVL
Protocol: (A, B, C, D, E, F) Time course of activation of ERK1/2 after stimulation of HEK-293 cells stably expressing h5-HT7R with various 5-HT7R ligands used at 10 μM. The cells were stimulated for the indicated periods and assayed for detection of phospho ERK1/2 by western blot analysis. […] Representative blots of three independent experiments are illustrated. The histogram on the right of each panel represents the results of densitometric analyses of three independent experiments. Data are means±SEM. * p<0.05; ** p<0.01; *** p<0.001 versus non stimulated cells (NS).
HEK-293 cells stably expressing h5-HT7R were stimulated with increasing concentrations of 5-CT or Serodolin for 7 minutes. Cells were lysed, and western blot analysis was performed. Representative Western blots from three independent experiments were shown in A-C. Quantification was performed by densitometric analyses from three independent experiments. Analyzed data were plotted versus log concentration for each compounds (A; B) or as bar graph (C) on the right panel.
Time course of activation of ERK1/2 after stimulation of HEK-293 cells stably expressing h5-HT7R with JLB060, a 5-HT7R ligand used at 10 μM. The cells were stimulated for the indicated periods and assayed for detection of phospho ERK1/2 by western blot analysis.
(§1) Treated cells were washed twice with cold PBS and lysed on ice for 30 min in lysis buffer containing 50 mM Tris pH 7.5, 150 mM NaCl, 10 mM EDTA, 1% Triton X-100 and the protease inhibitor cocktail. Cell lysates were centrifuged at 10,000×g for 10 min. Supernatant was then solubilized in Laemmli buffer with 0.1% β-mercaptoethanol. Samples were resolved by electrophoresis on 10% SDS-PAGE, and transferred electrophoretically to polyvinylidene fluoride (PVDF) membranes (GE Healthcare Life Sciences). […] membranes were washed in Tris-buffered saline (TBS; pH 7.4) containing 0.1% Tween-20 (TBS-T; 0.1%) and blocked with 5% (w/v) dry milk TBS-T 0.1% for 30 min. […] Blots were probed with anti-arrestin, anti-Phospho-ERK or anti-ERK antibody (1:2000), anti Phospho-SRC, anti SRC antibody, anti-HA or anti-GFP or anti-actin antibodies. Horseradish-peroxidase-conjugated goat anti-rabbit, anti-mouse or anti-rat antibodies (1:33,000) were used as secondary antibodies. Immunoreactive bands were detected using the Dura detection kit. Protein quantification on blots was performed using Quantity One software (Biorad).
as §1, with “12%” for “10%”, “with” for “with anti-arrestin,”, “anti-Phospho-ERK (1:2000)” for “anti-Phospho-ERK”, “anti-GAPDH” for “anti-ERK”, “(1:5000). […]” for “(1:2000), anti Phospho-SRC, anti SRC antibody, anti-HA or anti-GFP or anti-actin antibodies. Horseradish-peroxidase-conjugated goat anti-rabbit, anti-mouse or anti-rat antibodies (1:33,000) were used as secondary antibodies.”
ERK phosphorylation was monitored by western blotting after treatment of cells with 10 μM of ligands at different times ranging from 2 to 60 minutes.

[1] = molecular target: human 5-HT2Cedited receptor (Homo sapiens, UniProt P28335); experiment: Radioligand binding competition, 5-HT2Cedited; settings: selectivity panel
human 5-HT2Cedited receptor, sequence (P28335 33-458 limits assumed): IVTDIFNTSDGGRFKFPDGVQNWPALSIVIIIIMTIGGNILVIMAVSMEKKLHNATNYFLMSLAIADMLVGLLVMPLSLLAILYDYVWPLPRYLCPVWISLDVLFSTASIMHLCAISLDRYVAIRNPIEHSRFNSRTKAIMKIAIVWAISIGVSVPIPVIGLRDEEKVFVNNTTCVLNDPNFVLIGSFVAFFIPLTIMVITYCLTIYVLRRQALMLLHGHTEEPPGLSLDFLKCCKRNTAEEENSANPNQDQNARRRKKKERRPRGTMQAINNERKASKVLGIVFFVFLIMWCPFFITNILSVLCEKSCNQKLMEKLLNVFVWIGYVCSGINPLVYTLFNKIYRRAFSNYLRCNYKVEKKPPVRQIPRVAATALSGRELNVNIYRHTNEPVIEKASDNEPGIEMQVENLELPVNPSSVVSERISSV
Protocol: (§2) FIG. 14: Testing of 8 molecules for radioligand binding competition activity on recombinant human 5-HT1A, 5-HT2A, 5-HT2Cedited, 5-HT6, 5-HT7 and D2(long) receptors using filtration binding assays.
(§3) Radioligand Binding experiments were conducted with Epics Therapeutics membrane preparations. Receptor accession numbers, cellular background and reference compounds are shown in this table.
(§4) The new compounds have been tested by radioligand binding competition activity at the human 5-HT1A (FAST-0500B), 5-HT2A (FAST-0505B), 5-HT2Cedited (FAST-0507B), 5-HT6 (FAST-0509B), 5-HT7a (FAST-05111B) and D2(long) (FAST-0101B) receptors at seven (7) concentrations, in duplicate. […] Reference values thus obtained for the test were compared to historical values obtained from the same receptor and used to validate the experimental session. For replicate determinations, the maximum variability tolerated in the test was of +/−20% around the average of the replicates.
(§5) Dose-response data from test compounds were analyzed with XLfit (IDBS) software using nonlinear regression applied to a sigmoidal dose-response model and the following equation: • XL Fit fit Model 203: 4 Parameter Logistic Model • A: Bottom • B: TOP • C: LogEC50 • D: Hill

human 5-HT7a receptor = human 5-HT7a receptor (Homo sapiens (Human), UniProt P34969); experiment: Radioligand binding competition, filtration binding assay, 5-HT7a; settings: affinity on 5-HT7 receptor, table of new compounds
human 5-HT7a receptor, sequence (P34969 other isoform, or with tags, fused parts or gaps): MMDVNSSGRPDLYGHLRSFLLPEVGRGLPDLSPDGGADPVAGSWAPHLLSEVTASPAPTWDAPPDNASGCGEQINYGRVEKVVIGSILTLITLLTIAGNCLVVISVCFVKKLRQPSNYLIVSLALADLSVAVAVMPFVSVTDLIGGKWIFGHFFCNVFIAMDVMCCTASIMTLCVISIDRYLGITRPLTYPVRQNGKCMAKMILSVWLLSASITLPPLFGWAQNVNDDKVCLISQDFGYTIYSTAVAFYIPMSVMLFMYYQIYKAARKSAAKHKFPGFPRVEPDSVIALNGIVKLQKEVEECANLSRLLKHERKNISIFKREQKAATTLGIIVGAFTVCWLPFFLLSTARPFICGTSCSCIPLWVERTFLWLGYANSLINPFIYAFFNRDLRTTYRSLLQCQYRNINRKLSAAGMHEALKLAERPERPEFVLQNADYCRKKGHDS
Protocol: as §2, §3
Reference values thus obtained for the test were compared to historical values obtained from the same receptor and used to validate the experimental session. For replicate determinations, the maximum variability tolerated in the test was of +/−20% around the average of the replicates.
as §5

human 5-HT1A receptor = human 5-HT1A receptor (Homo sapiens (Human), UniProt P08908); experiment: Radioligand binding competition, 5-HT1A; settings: selectivity panel
human 5-HT1A receptor, sequence (P08908 whole entry): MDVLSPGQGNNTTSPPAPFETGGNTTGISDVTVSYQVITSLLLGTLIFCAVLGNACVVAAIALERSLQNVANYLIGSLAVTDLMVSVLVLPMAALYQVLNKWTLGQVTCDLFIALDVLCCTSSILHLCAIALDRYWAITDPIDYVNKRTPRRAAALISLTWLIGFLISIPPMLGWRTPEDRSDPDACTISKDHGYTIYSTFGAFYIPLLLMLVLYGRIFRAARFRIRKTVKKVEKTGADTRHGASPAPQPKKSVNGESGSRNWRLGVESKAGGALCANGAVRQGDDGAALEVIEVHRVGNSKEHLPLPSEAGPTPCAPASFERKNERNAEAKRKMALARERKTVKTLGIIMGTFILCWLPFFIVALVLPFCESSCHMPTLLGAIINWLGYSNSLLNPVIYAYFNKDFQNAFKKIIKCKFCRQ
Protocol: as §2, §3, §4, §5

human 5-HT2A receptor = human 5-HT2A receptor (Homo sapiens (Human), UniProt P28223); experiment: Radioligand binding competition, 5-HT2A; settings: selectivity panel
human 5-HT2A receptor, sequence (P28223 whole entry): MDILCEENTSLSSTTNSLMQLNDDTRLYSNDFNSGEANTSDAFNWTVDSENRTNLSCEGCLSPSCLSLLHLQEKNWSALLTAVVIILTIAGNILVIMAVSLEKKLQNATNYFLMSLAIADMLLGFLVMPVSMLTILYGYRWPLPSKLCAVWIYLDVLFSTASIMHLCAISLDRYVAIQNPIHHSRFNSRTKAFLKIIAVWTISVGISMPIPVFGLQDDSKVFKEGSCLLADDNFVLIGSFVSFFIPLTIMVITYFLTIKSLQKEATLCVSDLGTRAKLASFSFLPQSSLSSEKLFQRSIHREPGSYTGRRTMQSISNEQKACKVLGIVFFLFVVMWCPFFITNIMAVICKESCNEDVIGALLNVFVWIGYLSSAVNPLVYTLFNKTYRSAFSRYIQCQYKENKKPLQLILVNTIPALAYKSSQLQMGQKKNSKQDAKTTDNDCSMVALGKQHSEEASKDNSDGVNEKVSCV
Protocol: as §2, §3, §4, §5

C57BL/6 mice = experiment: Spared Nerve Injury (SNI) neuropathic pain model, Von Frey; settings: s.c.
Protocol: Pregabalin, vehicle or compounds solutions are subcutaneously administrated for 8 consecutive days. • (A) Mechanical response threshold after the first administration (D+10). […] Positive control animals were treated with Pregabalin (5 mg/kg, sc). Statistical differences are indicated compared to vehicle group (Two-way RM ANOVA followed by Bonferroni post-hoc test: ***p<0.001, ** p<0.01, * p<0.05). […] Positive control animals were treated with Pregabalin (5 mg/kg, sc). Statistical differences are indicated compared to vehicle group (Two-way RM ANOVA followed by Bonferroni post-hoc test: ***p<0.001, ** p<0.01, * p<0.05). […] (Two-way RM ANOVA followed by Bonferroni post-hoc test: ***p<0.001, ** p<0.01, * p<0.05)
MOA51 and Serodolin (AIC01) compounds were diluted in NDT solution (NaCl 0.9%—DMSO 20%—Tween80 5%). […] AIC01 was resuspended at 0.5 mg/mL and administrated at a ratio of 100 μl per 10 g (dose of 5 mg/kg).
Experiment starts with 8 weeks old male C57B16J mice (from Charles River). Study was performed on 40 mice (2 mice were excluded during the study due to health guidelines) divided in 4 randomized groups. • Group A: s.c. injection at 5 mg/kg of pregabalin. • Group B: s.c. injection at 0.5 mg/kg of MOA51. • Group C: s.c. injection at 5 mg/kg of Serodolin (AIC01). • Group D: s.c. injection of NDT solution (referred as Vehicle hereafter).
Compounds solutions, pregabalin and vehicle were subcutaneously administrated (100 μl/10 g) for 9 consecutive days, starting 10 days after surgery. Ligature and transection of the common peroneal and tibial distal branches of the sciatic nerve was made leaving the sural branch intact. 7 days post-surgery, a decrease of threshold response to Von Frey filaments of ipsilateral hind-paw was observed corresponding to neuropathic pain apparition (mechanical allodynia). Mechanical threshold response of mice were measured with calibrated Von Frey filaments using the up/down method. Experimenter was blind to mice treatment. Measures are performed as follow: one baseline measure before surgery, one measure at D+10, D+12, D+14, D+16 and D+18 before drug's administration, and 1 h, 2 h post-drug administration. A supplementary measure 4 h post-drug administration was performed at D+10 and D+18.
Two-way RM ANOVA (followed by Bonferroni post-hoc test) was used to analysed time course response at D+10 and D+18. Area under the curve was determined with the 1 h and 2 h post-drug administration measures to investigated tolerance of repeated administration of compounds

Sprague-Dawley male rats = experiment: Formalin induced inflammatory pain model; assay type: in vivo; settings: single s.c., Serodolin 10 mg/kg, MOA51 1 mg/kg, morphine
Protocol: FIG. 18: Effect of a single administration of Serodolin (AIC01) or MOA51 in the formalin test in rats. Effect of a single subcutaneous administration of Serodolin (AIC01) or MOA51 in the formalin test in rats. In this test, Sprague-Dawley male rats received unilateral injection of a 2.5% formalin solution (50 μl) into the plantar aspect of the hindpaw on testing day (i.e. D0). Control group received Vehicle (20% DMSO/5% Tween 80/NaCl). Serodolin was subcutaneously (sc) administrated at 10 mg/kg and MOA51 at 1 mg/kg. Positive control animals were treated with morphine (3 mg/kg, sc). Paw licking time was measured. Results are expressed as mean±s.e.m. Percentage are expressed as decreased as compared to the vehicle-treated group and represented as figure (B). ***: p<0.001 as compared to the vehicle-treated group, Bonferroni's test after significant Two-way Repeated Measures ANOVA. NS: Non-significant.
Sprague-Dawley male rats (n=10 rats per group) received unilateral injection of a 2.5% formalin solution (50 μl) into the plantar aspect of the hindpaw on testing day (i.e. D0). Experience was separated into 4 groups of animals. Formalin animals+vehicle-treated group; […]—Formalin animals+Sponsor's Serodolin (10 mg/kg), s.c.—Formalin animals+Sponsor's MOA51 (1 mg/kg), s.c.—Formalin animals+internal validator-treated group (Morphine at 4 mg/Kg, s.c.). Single subcutaneous administration of the Vehicle and Sponsor's Compound 30 min (or other timing depending on Sponsor's design) before formalin injection on testing day (i.e. D0)/Subcutaneous administration of Morphine 30 min before formalin injection on testing day (i.e. D0). Hindpaw licking time recorded in consecutive 5 minutes periods from 0 to 5 minutes (early phase) and 17 to 27 minutes (late phase) after formalin injection.
We evaluated the effect of Serodolin as well as MOA51 in rats in the formalin test, an acute and tonic pain model based on the use of a chemical stimulus. Subcutaneous injection of formalin into the right hindpaw produces a biphasic painful response of increasing and decreasing intensity for about 30 minutes after the injection. […] Although not significant, Serodolin, MOA51 and morphine have an inhibitory effect (−40%, −35% and −57% respectively) during the early phase.

mice = experiment: Acetic acid-induced writhing test; assay type: in vivo; settings: 3 mg/kg, s.c., positive control
Protocol: (§6) FIG. 9: Analgesic effect of Serodolin in the acetic acid-induced writhing test. In this test, nociception was induced by an intraperitoneally injection (ip) of 0.1 ml/10 g acid acetic solution (10 ml/kg) in peripheral origin. Serodolin at increasing dosage was administrated by oral (po), intravenous (iv) or subcutaneous (sc) route before acid acetic injection (upper panel). Positive control animals were pretreated morphine (3 mg/kg, sc) 10 minutes before acetic acid. Five minutes after i.p. injection of acetic acid the number of writhing was recorded for 10 minutes. Data mean±SEM of values obtained from a representative experiment (n=10 animals/group). ****p<0.0001 ***p<0.001 **p<0.01 *p<0.05 as compared with the control group (Vh).
as §6, with “16:” for “9:”, “MOA51” for “Serodolin”, “i.p.injection” for “i.p. injection”, “animals/group).” for “animals/group). ****p<0.0001 ***p<0.001”, “**p<0.01” for “**p<0.01 *p<0.05”
Writhing tests: Mice (25-35 g). Groups of mice (n=10) received by oral, subcutaneous or intravenous route Serodolin at different doses (0.1-10 mg/kg) one hour before intraperitoneally injection of 1% acetic acid in a volume of 10 ml/kg. Control group received vehicle (10 ml/kg, solution of 20% DMSO and 5% tween 80). The test was carried out 5 minutes later after acid acetic injection. The characteristic writhing responses have been observed individually and counted for 10 minutes.
Analgesic activity was first evaluated using the acetic acid abdominal constriction test (writhing test), a chemical model of visceral pain. We evaluated the dose-response effect of Serodolin following single oral, intravenous and subcutaneous administration of the compound one hour before injection of acetic acid.
Analgesic activity was evaluated using the acetic acid abdominal constriction test (writhing test), a chemical model of visceral pain. We evaluated the dose-response effect of MOA51 following single oral, intravenous and subcutaneous administration of the compound one hour before injection of acetic acid. MOA51 administered by the oral route induced statistically significant dose-dependent decreases in the number of writhings at and above the dose of 1 mg/kg. By the intravenous route, MOA51 induced dose-dependent decreases in the number of writhings at and above the dose of 0.1 mg/kg.

In the case of O=C1Nc2cccc3c2C1(CCCCN1CC=C(c2ccccc2)CC1)CCC3 (stereo not drawn) [DR4004, reference compound], the “induction of ERK phosphorylation” value (h5-HT7R) is reported as “none of them were able to induce ERK activation”.
For O=c1[nH]c2ccccc2n1CCCCCN1CCCN(c2ccc(F)cc2)CC1 [JLB060], the IC50 ([1]; read-out: RLB 5-HT2Cedited IC50) was 902 nM, the Ki ([1]; read-out: RLB 5-HT2Cedited Ki) was 148 nM and the “induction of ERK phosphorylation” value (h5-HT7R) was “robustly induce ERK phosphorylation”. The IC50 (human 5-HT7a receptor) was 0.98 nM, the Ki (human 5-HT7a receptor) was 0.69 nM and the IC50 (human 5-HT1A receptor; read-out: RLB 5-HT1A IC50) was 850 nM. The Ki (human 5-HT1A receptor; read-out: RLB 5-HT1A Ki) was 425 nM, the IC50 (human 5-HT2A receptor; read-out: RLB 5-HT2A IC50) was 137 nM and the Ki (human 5-HT2A receptor; read-out: RLB 5-HT2A Ki) was 23 nM.
In the case of CC(C)C[C@H](CN)CC(=O)O [Pregabalin, reference compound], the “tolerance after repetitive administration (AUC)” value (C57BL/6 mice; 9 consecutive days) is reported as “significant decrease of the analgesic effect” and the “mechanical response threshold vs vehicle” value (C57BL/6 mice; first (D+10) and last (D+18) administration, 1 h and 2 h) is reported as “significant increase of the mechanical response threshold”.
For CN1CC[C@]23c4c5ccc(O)c4O[C@H]2[C@@H](O)C=C[C@H]3[C@H]1C5 [morphine, reference compound], the “inhibitory effect on paw licking, early phase” value (Sprague-Dawley male rats; 0 to 5 minutes, not significant) was −57%, the “inhibition of licking, late phase” value (Sprague-Dawley male rats; 17 to 27 minutes) was −64% and the “inhibition of the writhing assay response” value (mice) was “full inhibition”.
